Data on 25 molecules can be found in patent US11981661B2, “Heterocyclic compounds” (Hoffmann-La Roche Inc., priority 2020, dated 2024).

pIC50: −log10 of the molar value.

This assay concerns the target T1, MAGL (Homo sapiens, UniProt Q99685).
T1 sequence (Q99685 1-303): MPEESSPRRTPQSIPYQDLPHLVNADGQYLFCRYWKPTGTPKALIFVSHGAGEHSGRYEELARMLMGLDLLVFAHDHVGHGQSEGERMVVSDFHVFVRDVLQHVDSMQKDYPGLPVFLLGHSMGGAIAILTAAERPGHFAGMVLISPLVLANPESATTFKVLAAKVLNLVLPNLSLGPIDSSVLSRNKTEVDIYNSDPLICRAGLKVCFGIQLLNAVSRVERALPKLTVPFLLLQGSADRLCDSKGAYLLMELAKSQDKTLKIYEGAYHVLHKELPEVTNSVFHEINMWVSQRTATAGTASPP
In words: 2-AG assay (MAGL inhibitory activity, hydrolysis of 2-arachidonoylglycerol followed by mass spectrometry). The settings on record: 50 pM MAGL, 8 μM 2-arachidonoylglycerol, 15 min preincubation, 30 min incubation at RT, concentration range 12.5 μM to 0.8 pM. The assay is classed as biochemical. Summed up:
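50 pM MAGL preincubated 15 min at RT with compound (12.5 μM to 0.8 pM) in 50 mM TRIS, 1 mM EDTA, 0.01% Tween, then 8 μM 2-arachidonoylglycerol for 30 min at RT. Arachidonic acid measured by RapidFire SPE–triple quadrupole MS in negative mode, normalised to d8-arachidonic acid.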
Regarding `CS(=O)(=O)c1cc(F)cc(CC2CC3(C2)CN(C(=O)CC[C@@H]2COC(=O)N2)C3)c1` [Example 184, (4R)-4-[3-[6-[(3-Fluoro-5-methylsulfonyl-phenyl)methyl]-2-azaspiro[3.3]heptan-2-yl]-3-oxo-propyl]oxazolidin-2-one], the pIC50 was 7.23.

As to `O=C1N[C@H](CCC(=O)N2CC3(CC(n4cnc(C5CC5)n4)C3)C2)CO1` [Example 185, (4R)-4-[3-[6-(3-Cyclopropyl-1,2,4-triazol-1-yl)-2-azaspiro [3.3]heptan-2-yl]-3-oxo-propyl] oxazolidin-2-one], the pIC50 was 6.33.

`O=C1N[C@H](CCC(=O)N2CC3(CC(Cc4cccc(S(=O)(=O)C(F)(F)F)c4)C3)C2)CO1` [Example 186, (4R)-4-[3-Oxo-3-[6-[[3-(trifluoro-methylsulfonyl)phenyl]methyl]-2-azaspiro[3.3]heptan-2-yl]propyl] oxazolidin-2-one] gave a pIC50 of 8.70.

Regarding `O=C1N[C@H](CCC(=O)N2CC3(CN(Cc4ccc(S(=O)(=O)C(F)(F)F)cc4)C3)C2)CO1` [Example 187, (4R)-4-[3-Oxo-3-[6-[[4-(trifluoro-methylsulfonyl)phenyl]methyl]-2,6-diazaspiro [3.3]heptan-2-yl]propyl] oxazolidin-2-one], the pIC50 was 6.69.

As for `O=C1N[C@H](CCC(=O)N2CC3(CCC(Cc4ccc(C(F)(F)F)nc4)CC3)C2)CO1` [Example 188, (4R)-4-[3-Oxo-3-[7-[[6-(trifluoro-methyl)-3-pyridyl]methyl]-2-azaspiro[3.5]nonan-2-yI]propyl] oxazolidin-2-one], the pIC50 is 7.60.

The molecule `O=C1N[C@H](CCC(=O)N2CC3(CCC(Cc4ccc(C(F)(F)F)cn4)CC3)C2)CO1` [Example 189, (4R)-4-[3-Oxo-3-[7-[[5-(trifluoro-methyl)-2-pyridyl]methyl]-2-azaspiro[3.5]nonan-2-yl]propyl] oxazolidin-2-one] showed a pIC50 of 7.80.

Molecule `O=C1N[C@H](CCC(=O)N2CC3(CCC(Cc4cnc(C(F)(F)F)cn4)CC3)C2)CO1` [Example 190, (4R)-4-[3-Oxo-3-[7-[[5-(trifluoro-methyl)pyrazin-2-yl]methyl]-2-azaspiro[3.5]nonan-2-yl]propyl] oxazolidin-2-one] showed a pIC50 of 6.85.

On to `O=C1N[C@H](CCC(=O)N2CC3(CCC(Cc4ccc(OC(F)F)nc4)CC3)C2)CO1` [Example 191, (4R)-4-[3-[7-[[6-(Difluoro-methoxy)-3-pyridyl]methyl]-2-azaspiro[3.5]nonan-2-yl]-3-oxo-propyl] oxazolidin-2-one], for which the pIC50 was 7.43.

`CS(=O)(=O)c1ccc(CN2CCC3(CC2)CN(C(=O)CC[C@@H]2COC(=O)N2)C3)cc1` [Example 192, (4R)-4-[3-[7-[(4-Methyl-sulfonylphenyl)methyl]-2,7-diazaspiro[3.5]nonan-2-yl]-3-oxo-propyl] oxazolidin-2-one]: the pIC50 was 5.91.

On to `CS(=O)(=O)c1cccc(CN2CCC3(CC2)CN(C(=O)CC[C@@H]2COC(=O)N2)C3)c1` [Example 193, (4R)-4-[3-[7-[(3-Methyl-sulfonylphenyl)methyl]-2,7-diazaspiro[3.5]nonan-2-yl]-3-oxo-propyl] oxazolidin-2-one], for which the pIC50 was 6.10.

With `O=C1N[C@H](CCC(=O)N2CC3(CCN(Cc4ccc(S(=O)(=O)C(F)(F)F)cc4)CC3)C2)CO1` [Example 194, (4R)-4-[3-Oxo-3-[7-[[4-(trifluoro-methylsulfonyl)phenyl]methyl]-2,7-diazaspiro[3.5]nonan-2-yl]propyl] oxazolidin-2-one], the pIC50 is 7.21.

On to `O=C1N[C@H](CCC(=O)N2CC3(CCN(Cc4cccc(S(=O)(=O)C(F)(F)F)c4)CC3)C2)CO1` [Example 195, (4R)-4-[3-Oxo-3-[7-[[3-(trifluoro-methylsulfonyl)phenyl]methyl]-2,7-diazaspiro [3.5]nonan-2-yl]propyl] oxazolidin-2-one], for which the pIC50 is 7.55.

The molecule `O=C1N[C@H](CCC(=O)N2CC3(CCN(Cc4ccc(C(F)(F)F)nc4)CC3)C2)CO1` [Example 196, (4R)-4-[3-Oxo-3-[7-[[6-(trifluoro-methyl)-3-pyridyl]methyl]-2,7-diazaspiro [3.5]nonan-2-yl]propyl] oxazolidin-2-one] gave a pIC50 of 6.29.

In turn, `O=C1N[C@H](CCC(=O)N2CC3(CCN(Cc4ccc(C(F)(F)F)cn4)CC3)C2)CO1` [Example 197, (4R)-4-[3-Oxo-3-[7-[[5-(trifluoro-methyl)-2-pyridyl]methyl]-2,7-diazaspiro [3.5]nonan-2-yl]propyl] oxazolidin-2-one] gave a pIC50 of 6.49.

Take `O=C1N[C@H](CCC(=O)N2CC3(CCC(Cc4ccc(C(F)(F)F)nc4)C3)C2)CO1` (stereo partly drawn) [Example 198, (4R)-4-[3-Oxo-3-[6-[[6-(trifluoro-methyl)-3-pyridyl]methyl]-2-azaspiro[3.4]octan-2-yl]propyl]oxazolidin-2-one]: the pIC50 is 7.14.

`COC(=O)c1cc(Cl)ccc1Oc1ccc(C2CN(C(=O)CC[C@@H]3COC(=O)N3)C2)cn1` [Example 199, Methyl 5-chloro-2-[[5-[1-[3-[(4R)-2-oxooxazolidin-4-yl]propanoyl]azetidin-3-yl]-2-pyridyl]oxy]benzoate] gave a pIC50 of 7.85.

`O=C1N[C@H](CCC(=O)N2CC(c3ccc([C@H]4C[C@@H](C(F)(F)F)C4)nc3)C2)CO1` [Example 202, Cis-(4R)-4-[3-Oxo-3-[3-[6-[3-(trifluoromethyl)cyclobutyl]-3-pyridyl]azetidin-1-yl]propyl]oxazolidin-2-one] had a pIC50 of 7.43.

Molecule `O=C1N[C@H](CCC(=O)N2CC(c3ccc([C@H]4C[C@H](C(F)(F)F)C4)nc3)C2)CO1` [Example 203, Trans-(4R)-4-[3-Oxo-3-[3-[6-[3-(trifluoromethyl)cyclobutyl]-3-pyridyl]azetidin-1-yl]propyl]oxazolidin-2-one] gave a pIC50 of 7.12.

For `O=C1N[C@H](CCC(=O)N2CC(c3ccc(N4CCC(O)(C(F)(F)F)C4)nc3)C2)CO1` (stereo partly drawn) [Example 205, (+)- or (−)-(4R)-4-[3-[3-[6-[3-Hydroxy-3-(trifluoromethyl)pyrrolidin-1-yl]-3-pyridyl]azetidin-1-yl]-3-oxo-propyl]oxazolidin-2-one], the pIC50 was 6.77.

`O=C1N[C@H](CCC(=O)N2CC(c3ccc(N4CCC(O)(C(F)(F)F)C4)nc3)C2)CO1` (stereo partly drawn) [Example 207, (+)- or (−)-(4R)-4-[3-[3-[6-[3-Hydroxy-3-(trifluoromethyl)pyrrolidin-1-yl]-3-pyridyl]azetidin-1-yl]-3-oxo-propyl]oxazolidin-2-one] gave a pIC50 of 7.77.

In turn, `CS(=O)(=O)c1cc(Cl)ccc1-c1ccc(C2CN(C(=O)NCC3COC(=O)N3)C2)cc1` (stereo not shown) [Example 212, 3-[4-(4-Chloro-2-methylsulfonyl-phenyl)phenyl]-N-[(2-oxooxazolidin-4-yl)methyl]azetidine-1-carboxamide] showed a pIC50 of 7.60.

Take `O=C1NCC(CCC(=O)N2CC3(CC(Cc4ccc(C(F)(F)F)nc4)C3)C2)N1` (stereo not shown) [Example 213, 4-[3-Oxo-3-[6-[[6-(trifluoromethyl)-3-pyridyl]methyl]-2-azaspiro[3.3]heptan-2-yl]propyl]imidazolidin-2-one]: the pIC50 is 5.65.

In turn, `O=C1NCC(CCC(=O)N2CC(c3ccc(C4(C(F)(F)F)CC4)cc3)C2)N1` (stereo not shown) [Example 214, 4-[3-Oxo-3-[3-[4-[1-(trifluoromethyl)cyclopropyl]phenyl]azetidin-1-yl]propyl]imidazolidin-2-one] showed a pIC50 of 6.80.

In turn, `O=C1NCC(CCC(=O)N2CC(OCc3ccc(C(F)(F)F)cc3F)C2)N1` (stereo not shown) [Example 215, 4-[3-[3-[[2-Fluoro-4-(trifluoromethyl)phenyl]methoxy]azetidin-1-yl]-3-oxo-propyl]imidazolidin-2-one] showed a pIC50 of 6.07.

`CS(=O)(=O)c1cc(Cl)ccc1-c1ccc(C2CN(C(=O)CCC3CNC(=O)N3)C2)cc1` (stereo not shown) [Example 216, 4-[3-[3-[4-(4-Chloro-2-methylsulfonyl-phenyl)phenyl]azetidin-1-yl]-3-oxo-propyl]imidazolidin-2-one] showed a pIC50 of 7.17.
